Results as given in publication PMC12677653, “Inhibition of Tumor Lipogenesis and Growth by Peptide‐Based Targeting of SREBP Activation” (Advanced Science, 2025).

Columns and labels:
[1] = system: Insig1 S207/Insig2 S151 phosphorylation; test: Immunoblot of Insig1 S207/Insig2 S151 phosphorylation, Hep3B; type: cell-based, human; settings: Hep3B cells, peptide 7.5 or 15 μM 1 h before IGF1 100 ng/mL
Description: (§1) Cellular proteins were extracted using ice‐cold lysis buffer [50 mM Tris‐HCl (pH 7.5), 150 mM NaCl, 0.1% SDS, 1% Triton X‐100, 1 mM DTT, 0.5 mM EDTA] supplemented with protease inhibitor cocktail (Roche) and phosphatase inhibitors (Bimake). Following lysis, cell extracts were centrifuged at 13400 × g for 15 min at 4 °C to remove cellular debris. The clarified supernatants were then incubated with primary antibodies overnight at 4 °C with gentle rotation. For Flag‐tagged protein immunoprecipitation, Flag M2 magnetic beads (Sigma) were added to the lysate‐antibody mixture and incubated for an additional 4 h at 4 °C. The immunocomplexes were washed three times with lysis buffer under stringent conditions (5 min per wash with rotation). Finally, the precipitated proteins were eluted and analyzed by immunoblotting as previously described.^[ [35] ^]
e) Hep3B cells were pretreated with low (7.5 μM) or high (15 μM) concentrations of Insig1/2 loop 1 peptide for 1 h before IGF1 (100 ng ml⁻¹) stimulation.

[2] = system: Insig1 S207 phosphorylation; test: Immunoblot of Insig1 S207 phosphorylation, HCT116; type: cell-based, human; settings: HCT116 cells, peptide 15 μM 1 h before IGF1 100 ng/mL
Description: as §1
h) HCT116 cells were pretreated with Insig1/2 loop1 peptide (15 μM) for 1 h before IGF1 (100 ng ml⁻¹) stimulation.

[3] = system: lipid accumulation in tumor tissues; test: Oil Red O staining of tumor tissues; type: in vivo, BALB/c athymic nude mice; settings: cryosections of Huh7 tumors, n = 4; peptide given as LNP 10 mg/kg iv; lenvatinib mesylate 2 mg/kg oral
Description: Representative micrographs are shown (scale bar: 20 µm). b,c) Cryosections of mouse tumor tissues were prepared for histological analysis. (b) Lipid accumulation was assessed by Oil Red O staining. Representative micrographs are shown (scale bar: 20 µm). (c) Apoptotic cells were detected by TUNEL assay. Representative micrographs are shown (scale bar: 20 µm). d,e) Quantitative analysis of (d) apoptotic areas (TUNEL‐positive regions) and (e) lipid droplet counts (Oil Red O‐positive particles) was performed. Data represent the mean ± SD (n = 4). Statistical significance was determined by one‐way analysis of variance (ANOVA). ** p < 0.01, **** p < 0.0001, ns, no significance.
Cryosections 6–8 µm in thickness were air‐dried and fixed with formaldehyde for 5–10 min. Then, the slides were placed in absolute propylene glycol for 2–5 min and stained with 0.5% Oil red O dye. After staining, the slides were rinsed, counterstained with Mayer's hematoxylin for 1 min, and mounted in glycerin.

[4] = Safety in mice: H&E staining of organs and blood examination; type: in vivo; settings: given iv as LNPs, 10 mg/kg
Description: c-k) The LNP@Insig1/2 loop 1 peptide or PBS (control) was administered intravenously to 6-week-old nude mice (n = 4 per group) at a dose of 10 mg kg^-1 body weight. (c)Mice heart, liver, spleen, lung and kidney were harvested for H&E staining (scale bar: 50 μm). Mouse blood was collected for (d) ALT, (e) AST, (f) ALB, (g) ALP, (h) BUN, (i) UA, (j) CR, (k) CK analysis. ALT, alanine aminotransferase; AST, aspartate transaminase; ALB, albumin; ALP, alkaline phosphatase; BUN, blood urea nitrogen; UA, uric acid; CR, creatinine; CK, creatine kinase. Data are expressed as mean ± SD. Comparisons between the two groups were performed using Student's t-test.

[5] = molecular target: T1, binding of PCK1 to Insig1 (Homo sapiens, UniProt P35558); test: Immunoprecipitation of IGF1-induced PCK1-Insig1 binding, Hep3B; type: cell-based; set-up: expressed in transfected cells; settings: Flag-PCK1-expressing Hep3B cells, peptide 15 μM 1 h before IGF1 100 ng/mL
T1 sequence (P35558 1-622): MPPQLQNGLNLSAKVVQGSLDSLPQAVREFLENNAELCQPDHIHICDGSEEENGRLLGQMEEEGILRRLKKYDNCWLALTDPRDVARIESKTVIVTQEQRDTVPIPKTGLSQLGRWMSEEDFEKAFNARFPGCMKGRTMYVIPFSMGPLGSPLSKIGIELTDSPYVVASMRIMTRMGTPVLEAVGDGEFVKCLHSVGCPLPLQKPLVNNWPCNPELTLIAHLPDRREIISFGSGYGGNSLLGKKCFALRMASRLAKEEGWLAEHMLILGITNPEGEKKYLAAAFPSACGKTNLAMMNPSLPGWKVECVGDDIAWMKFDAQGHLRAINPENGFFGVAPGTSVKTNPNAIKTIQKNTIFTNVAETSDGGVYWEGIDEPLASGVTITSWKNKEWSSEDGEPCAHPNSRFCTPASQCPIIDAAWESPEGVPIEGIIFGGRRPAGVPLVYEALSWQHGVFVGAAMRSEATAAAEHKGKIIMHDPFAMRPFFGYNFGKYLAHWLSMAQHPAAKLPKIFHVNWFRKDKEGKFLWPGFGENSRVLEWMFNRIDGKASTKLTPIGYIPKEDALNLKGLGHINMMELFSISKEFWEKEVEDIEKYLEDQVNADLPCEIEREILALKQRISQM
Description: as §1
d) Flag-PCK1-expressing Hep3B cells were pre-treated with Insig1/2 loop 1 peptide (15 μM) for 1 h before IGF1 (100 ng ml⁻¹) stimulation.

With “RKKRRQRRRLYPCIDSHLGEPHKFKRE [Insig1/2 loop 1 peptide]” the “Insig1 S207/Insig2 S151 phosphorylation” value [1] was “markedly inhibited”, the “Insig1 S207 phosphorylation” value [2] was “inhibited” and the “lipid accumulation in tumor tissues (Oil Red O)” value [3] was “reduced lipid accumulation in tumor tissues”. The “toxicity (overall conclusion)” value [4] was “limited toxicity” and the “IGF1-induced binding of PCK1 to Insig1” value [5] was “markedly inhibited”.
